Results taken from PMC4512758 (Analytical biochemistry, 2015).
Values joined by “and” are separate entries in the source; they are usually repeats but may differ in a detail not shown here. Equal values may be shown once. Read-outs that look alike come from different tables or passages of the source.

Columns and labels:
[1] = molecular target: DIPY binding site of TSPO (Homo sapiens, UniProt P30536); experiment: Frontal displacement on MMAC-
TSPO [2] = conditions: read-out: Reported Ki using marker ligand PK; cited from earlier work
TSPO [3] = molecular target: T1, TSPO (Homo sapiens, UniProt P30536); experiment: Single displacement study for ranking TSPO ligands on MMAC-; type: binding; conditions: MMAC-(U87MG)
[4] = molecular target: Translocator protein (TSPO) (Homo sapiens, UniProt P30536); experiment: Frontal affinity chromatography; type: binding; conditions: for Breakthrough time: MMAC (U87MG), ammonium acetate [10 mM
TSPO [5] = molecular target: T1, TSPO; experiment: Frontal affinity chromatography on MMAC-OT; type: binding
SUR [6] = experiment: Frontal affinity chromatography on MMAC-OT; type: binding, human; conditions: read-out: Kd on MMAC-OT (HEK-293); SUR ligand; open tubular column
SUR [7] = conditions: read-out: Reported Kd; SUR ligand; cited from earlier work
[8] = molecular target: sulfonylurea receptor (SUR); experiment: Frontal affinity chromatography on MMAC-; type: binding, human; conditions: read-out: Kd on MMAC-(U87MG); SUR ligand; ammonium acetate [10 mM, pH 7.4]
mPTP = conditions: cited from earlier work
[9] = molecular target: mitochondrial permeability transition pore (mPTP); experiment: Frontal affinity chromatography on MMAC-; type: binding, human; conditions: read-out: Kd on MMAC-(U87MG); mPTP ligand; ammonium acetate [10 mM, pH 7.4]

Chain of DIPY binding site of TSPO (P30536 whole entry): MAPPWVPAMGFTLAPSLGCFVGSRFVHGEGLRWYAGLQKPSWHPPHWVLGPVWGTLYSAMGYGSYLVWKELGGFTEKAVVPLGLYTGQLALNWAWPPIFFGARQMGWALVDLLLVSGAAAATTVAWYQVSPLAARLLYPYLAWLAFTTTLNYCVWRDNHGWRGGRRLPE
T1 sequence (P30536 whole entry): as above
Chain of Translocator protein (TSPO) (P30536 whole entry): as above

## CCC1=C(C)c2cc3[nH]c(cc4[nH]c(cc5nc(cc1n2)C(C)=C5CC)c(C)c4CCC(=O)O)c(CCC(=O)O)c3C [MIX, mesoporphyrin IX]
[1]; read-out: Ki for DIPY binding site on MMAC(U87MG), 0.5 μM DIPY as marker, ammonium acetate [10 mM, pH 5.9]
  Ki: 1470 ± 120 nM
TSPO [2]
  Ki: 650 nM

## CN1C(=O)CN=C(c2ccccc2F)c2cc([N+](=O)[O-])ccc21 [Flu, flunitrazepam]
TSPO [3]; 2.875 μM compound with 0.125 μM DIPY
  Effect on retention of DIPY in single displacement study: increased the retention of DIPY
TSPO [3]; 2.875 μM compound, pH 5.9
  Increase of retention of 0.125 μM DIPY: ~ 15%
[1]; MMAC-(U87MG), concentrations greater than 0.5 μM
  Increase of breakthrough time of DIPY: 10-15%
[1]; MMAC-(U87MG), concentrations lower than 0.5 μM
  Displacement of DIPY: did not significantly displace DIPY
TSPO [2]
  Ki: 211 nM
[4]
  Kd: 290 ± 60 nM

## C=CC1=C(C)c2cc3[nH]c(cc4nc(cc5[nH]c(cc1n2)c(C)c5CCC(=O)O)C(CCC(=O)O)=C4C)c(C)c3C=C [PIX, protoporphyrin IX]
[1]
  Ki: 3330 ± 1350 nM
TSPO [2]
  Ki: 2920 nM

## OCCN(CCO)c1nc(N2CCCCC2)c2nc(N(CCO)CCO)nc(N3CCCCC3)c2n1 [DIPY, dipyridamole]
TSPO [5]
  Kd: 760 ± 250 nM
TSPO [2]
  Ki: 680 nM and 679 nM
[4]; pH 5.9]
  Breakthrough time: 100 min
[4]; pH 5.9] with 10% methanol
  Breakthrough time: 50 min
[4]; pH 7.4]
  Breakthrough time: 200 min

## COc1ccc(Cl)cc1C(=O)NCCc1ccc(S(=O)(=O)NC(=O)NC2CCCCC2)cc1 [Glibenclamide, glibenclamide]
SUR [6]
  Kd: 990 ± 520 nM
SUR [7]
  Kd: 360 ± 50 nM
[8]
  Kd: 790 ± 390 nM

## O=C(O)Cc1ccccc1Nc1c(Cl)cccc1Cl [Diclofenac, diclofenac]
mPTP
  Reported Kd (mPTP induction): induces mPTP at low micromolar range [1, 37]
[9]
  Kd: 1200 ± 190 nM

## C=C(C)[C@H]1Cc2c(ccc3c2O[C@@H]2COc4cc(OC)c(OC)cc4[C@@H]2C3=O)O1 [Rot, rotenone]
[1]
  Ki: 3400 ± 1270 nM
TSPO [2]
  Ki: 20900 nM
